Among the data in US20250205162A1, “SYSTEMS AND METHODS FOR SMALL MOLECULE ENCAPSULATION” (Tecton Group, LLC, priority 2022, published 2025) are pH in water and safe daily use values, retold here.

Data set [1] can be described thus: pH in water. Type of data set: physicochemical. The note with it: aqueous solution.
The conditions of data set [2]: humans; cited from earlier work.

Take `C[C@@H](O)CC(=O)OC(CO)CO` [KM, 1,3 Dihydroxypropan-2-yl (R)-3-hydroxybutanoate]: in data set [1], the pH in water was found to be 4.5.

Take `Cn1c(=O)c2c(n(C)c1=O)n(C)c(=O)n2C` [TH, theacrine]: the safe daily use entry in data set [2] is reported as “up to 300 mg/day”.

In data set [1], nicotinamide riboside [NR] registered a pH in water of 4.0.
